This data set is described as follows: gradient 5% acetonitrile 3 min, to 50% in 2 min, to 85% in 15 min, held 3 min, 100 µL/min. The following applies: column: Zorbax Extend-C18 2.1 x 50 mm; eluents: water / acetonitrile, 0.1% formic acid. An outline of the steps:
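In both positive and negative ionization mode, a quadrupole time-of-flight mass spectrometer coupled to HPLC analyzed pure standards run in mixtures of ~100 molecules. The Zorbax Extend-C18 column (2.1 × 50 mm, 1.8 μm) was operated at 100 μL/min with water and acetonitrile, each containing 0.1% formic acid. The dead volume was 40 μL and the dwell volume 900 μL. Retention time came from adduct peaks that were computationally picked and individually inspected by hand.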
Regarding `O=C(NCc1ccc(N2CCN(c3ccccn3)CC2)cc1)c1ccoc1`, the RP-LC retention time stood at 624 s.
Take `CC(C)n1c(=O)sc2cc(S(=O)(=O)N3CCC(C(=O)Nc4ccc(F)c(F)c4)CC3)ccc21`: the RP-LC retention time was 1020 s.
With `O=C(Cn1nc2c(SC3CCCCC3)nccn2c1=O)Nc1ccc(Br)cc1F` the figure was 1120 s; with `Cc1nn(-c2cc(N3CCOCC3)ncn2)c(C)c1CCC(=O)NCc1ccco1`, 711 s; with `O=C(c1c(F)cccc1F)N1CCN=C1N1CCCCC1`, 623 s.
`CCC(C)n1c(=O)c2ccccc2n(Cc2nc(-c3cccc(Br)c3)no2)c1=O` (stereo not drawn) showed an RP-LC retention time of 1290 s.
As for `O=C(Nc1nccs1)c1cc(-c2ccncc2)nc2ccccc12`, the RP-LC retention time was 614 s.
`O=C(c1cnc[nH]1)N1CC(F)(F)C[C@H]1c1nc(C2CC2)no1` displayed an RP-LC retention time of 630 s.
For `COc1ccc(NC(=O)Cn2c(C)cc(-c3nnc(-c4ccc(F)cc4)o3)c2C)cc1F` the value was 962 s; for `Cn1cnc2ccc(-c3noc(CNC(=O)c4ccccc4)n3)cc21`, 624 s.
For `Cc1ccc(S(=O)(=O)N2CCC3(CC2)NCCN=C3NCc2cccc(F)c2)c(C)c1` the value was 750 s.
For `Cn1c2c(c(=O)n3ncc(C(=O)N4CCN(c5ccccn5)CC4)c13)CN(Cc1ccccc1)CC2` the value was 602 s; for `O=C(NCC(c1cccnc1)N1CCc2ccccc2C1)C(=O)NC1CCCCCC1` (stereo not drawn), 681 s; for `CCOc1ccc(-n2c(SCC(=O)Nc3ncn[nH]3)nc3ccsc3c2=O)cc1`, 692 s.
As for `Cc1nc(-c2ccc(C(=O)N3CCOCC3)cc2)no1`, the RP-LC retention time was determined as 635 s.
With `Clc1ccc(-c2nc3cnccn3c2Nc2ccc3c(c2)OCCO3)cc1` the figure was 891 s.
The molecule `CCOC(=O)c1ccc(NC(=O)CSc2cc(N3CCC(C(=O)NC4CC4)CC3)ncn2)cc1` showed an RP-LC retention time of 748 s.
For `O=S(=O)(Cc1ccc(F)cc1)NCC1(c2ccc(F)cc2)CC1` the value was 700 s.
Turning to `COc1ccc(OC)c(NC(=O)c2sc(-c3cn(C(C)C)c4ncccc34)nc2C)c1`, the RP-LC retention time was 1030 s.
With `Cc1ccc(-c2cc3c(=O)n(Cc4noc(CN5CCOCC5)n4)ccn3n2)cc1C` the figure was 777 s; with `COc1ccc(CNc2c(C(=O)OC(C)C)cnc3nc(C)ccc23)cc1`, 740 s; with `Clc1ccc(C2Cn3nnc(-c4nc(-c5ccncc5)no4)c3CO2)cc1` (stereo not drawn), 1000 s.
For `Cn1cc(-c2nc(C(=O)NCc3cccs3)cs2)c2cccnc21` the value was 851 s; for `O=C(NCCCc1ccccc1)C1CCCN(c2nc3ccsc3c(=O)n2-c2ccc(F)cc2)C1` (stereo not drawn), 951 s.
With `CC(C(=O)NCCCN1CCC(N2CCCCC2)CC1)n1c(=O)c(C(F)(F)F)nc2ccccc21` (stereo not drawn) the figure was 595 s; with `Cc1ccccc1Nc1c(-c2ccc(Cl)cc2)nc2c(C)cccn12`, 802 s; with `Cc1ccc(CNC(=O)c2c(C)sc3ccn(Cc4ccc(F)cc4)c(=O)c23)o1`, 980 s.
In turn, `CCC(C)NC(=O)c1cnn(-c2ccc(-c3nc(C(C)(C)C)no3)cn2)c1C` (stereo not drawn) yielded an RP-LC retention time of 1050 s.
`O=C(Cn1nc2n(c1=O)CCCC2)NCCCc1ccccc1` gave an RP-LC retention time of 709 s.
For the molecule `CCCCN1C(=O)C(C)(C(=O)Nc2ccc(C)cc2)Oc2cccnc21` (stereo not drawn), the RP-LC retention time turned out to be 1060 s.
`COc1ccccc1NC(=O)C1CCN(S(=O)(=O)c2cc(C(=O)N(C)C)cs2)CC1` had an RP-LC retention time of 789 s.
On to `N#Cc1cccc(NC(=O)c2cccn2Cc2noc(-c3ccccc3)n2)c1`, for which the RP-LC retention time is 1040 s.
As to `CCn1cnc2ccc(-c3noc(COc4ccc(Cl)cc4)n3)cc21`, the RP-LC retention time was 815 s.
For `CCc1ccc(OCc2ccccc2C(=O)Nc2ccc3nc(C)cc(N)c3c2)cc1` the value was 838 s; for `Cc1noc(C)c1-c1ccc(S(=O)(=O)N2CCN(C)CC2)cc1`, 610 s; for `Cc1ccc2oc(C(=O)Nc3ccc(-n4cnnn4)cc3)c(C)c2c1`, 933 s.
The molecule `COc1ccc(-c2nc(-c3cn(-c4ccc(F)cc4)nn3)no2)c(OC)c1` showed an RP-LC retention time of 974 s.
For `Cc1ccc(CNC(=O)N2CCN(c3ncccc3-c3nnc(C4CC4)o3)CC2)cc1`, the RP-LC retention time amounted to 780 s.
With `O=C(NCc1ccccn1)c1ccc2c(c1)CCCN2S(=O)(=O)c1ccccc1` the figure was 703 s; with `C=CCN1C(=O)COc2ccc(-c3csc(NC(=O)C(C)(C)C)n3)cc21`, 964 s; with `CC1CCCN(CCCNC(=O)CCC(=O)N2CCc3c(c(C(=O)N4CCCCC4)nn3C)C2)C1` (stereo not drawn), 594 s.
For `CCc1ccc(C2=C(C)C(N3CCC(C(=O)NCCCN4CCCC4)CC3)=NS2(=O)=O)cc1` the value was 604 s; for `O=C(Nc1ccc(-c2nc(-c3ccccc3)co2)cc1)c1cccs1`, 1100 s.
With `Cn1c(N2CCN(S(=O)(=O)c3ccc(Cl)s3)CC2)nc2ccccc21` the figure was 614 s.
In the case of `Cc1ccc(S(=O)(=O)CC(=O)Nc2nc(-c3cccc([N+](=O)[O-])c3)cs2)cc1`, the RP-LC retention time came out at 993 s.
On to `CCc1ccccc1NC(=O)N1CCc2nc[nH]c2C1`, for which the RP-LC retention time was found to be 575 s.
On to `O=C(Cc1csc(SCc2ccncc2)n1)N1CCN(c2ccccc2)CC1`, for which the RP-LC retention time amounted to 582 s.
`CC(C)c1ccc(N2C(=O)CN(S(C)(=O)=O)CC2(C)C(=O)NCc2ccc(Cl)cc2)cc1` (stereo not drawn) returned an RP-LC retention time of 966 s.
With `O=C(Nc1ccc(F)cc1)N1CCC(CCNC(=O)C2(c3ccccc3)CC2)CC1` the figure was 897 s; with `CC(CCc1ccccc1)NC(=O)C(=O)NC1CCCC1` (stereo not drawn), 925 s.
With `O=C(c1cc(-c2ccncc2)n[nH]1)N1CCN(C(=O)C2CCCC2)CC1` the figure was 588 s; with `CCCSCCCNc1nc(-c2nnc(-c3ccccc3)o2)nc2ccccc12`, 1100 s; with `COc1ccc(-c2nc(-c3ccc4oc(C)nc4c3)no2)cc1F`, 1080 s.
With `CC1(C(=O)N2CCCc3ccccc32)Cc2ccccc2C(=O)O1` (stereo not drawn), the RP-LC retention time came to 841 s.
With `CC(=O)Nc1nc(-c2ccc3c(c2)NC(=O)C(C)O3)cs1` (stereo not drawn) the figure was 685 s; with `O=C(NCc1ccccc1)NC1CCN(C(=O)N2C[C@H]3C[C@H](C2)[C@H]2CCCC(=O)N2C3)CC1`, 660 s.
With `COc1ccc(-c2nc(NC(=O)c3ccc(-c4nc5ccccc5s4)s3)sc2C)cc1` the figure was 1400 s; with `CCc1ccc(NC(=O)N2CCC(c3nc(C(=O)N(C)C)c(C)o3)CC2)cc1`, 769 s.
The molecule `CCOc1ccc(-n2c(N3CCC(C)CC3)nc3cc(C(=O)OC)ccc3c2=O)cc1` displayed an RP-LC retention time of 1300 s.
With `CCc1ccccc1NC(=O)NCC(c1cccnc1)c1cn(C)c2ccccc12` (stereo not drawn) the figure was 711 s; with `COc1ccccc1Nc1c(-c2ccc(Br)cc2)nc2cnccn12`, 1080 s.
With `O=C(c1ccc(F)cc1F)N1CCC(n2cnnc2C2CC2)CC1` the figure was 633 s; with `Cc1nnc(-c2ccc3ccn(CC(=O)Nc4nccs4)c3c2)o1`, 707 s.
On to `CSc1nnc(-c2nn(C)c3c2CN(C(=O)c2ccccc2Br)CC3)n1C`, for which the RP-LC retention time stood at 717 s.
For `CCc1ccc(NC(=O)C2CCN(S(C)(=O)=O)c3cc(Cl)ccc3O2)cc1` (stereo not drawn) the value was 944 s; for `CCOC(=O)c1[nH]c(C)c(CCC(=O)N2CCC(C(=O)NCc3ccc(C)o3)CC2)c1C`, 739 s; for `CCCNC(=O)C1CCCN(c2ccc(SCC(=O)Nc3ccc4c(c3)OCCO4)nn2)C1` (stereo not drawn), 657 s.
As to `Cc1ccccc1S(=O)(=O)N1CCN(c2nc3ccncc3n(CC(C)C)c2=O)CC1`, the RP-LC retention time was 775 s.
With `Cc1ccc(CN2CCn3nnc(CCC(=O)N4CCCC4)c3C2)s1` the figure was 651 s; with `O=S(=O)(c1cc(-c2nnc(C3CCC3)o2)co1)N1CCN(c2ccc(F)cc2)CC1`, 1250 s; with `CCCCS(=O)(=O)c1cc2c(cc1NC(=O)c1cccc(C)c1)n(C)c(=O)n2C`, 981 s.
In the case of `CCc1ccc(CNC(=S)Nc2ccc3nc(N4CCN(C)CC4)cc(C)c3c2)cc1`, the RP-LC retention time came to 641 s.
In the case of `CCOc1ccc2nc(C(=O)NC3CCCCC3)cn2n1`, the RP-LC retention time was found to be 897 s.
`Cc1ccc(C)c(CSc2nnc3c(S(=O)(=O)N4CCCC4)cccn23)c1` came in with an RP-LC retention time of 893 s.
Take `C=C1C(=O)O[C@@H]2[C@H]3O[C@]3(C)CC/C=C(\C)CC[C@@H]12`: the RP-LC retention time came out at 898 s.
For `Cc1ccsc1C(=O)N1CCOc2ccc(N3CCOCC3)cc2C1` the value was 762 s; for `O=c1n(Cc2cccc(F)c2)nc2ccc(S(=O)(=O)N3CCCCC3)cn12`, 952 s.
Turning to `COCc1noc([C@@H]2CC(F)(F)CN2C(=O)c2coc(C)n2)n1`, the RP-LC retention time was 717 s.

The values above are taken from the METLIN SMRT retention time set (Domingo-Almenara et al. 2019).
